In the NIST ThermoML archive (doi:10.1016/j.fluid.2016.02.009):
± gives the expanded uncertainty stated by the source.

Settings: Liquid, Vibrating tube method

CCOC(C)(C)C [2-ethoxy-2-methylpropane]
mass density [kg/m3]
Settings	283.15 K	288.15 K	293.15 K	298.15 K	303.15 K	308.15 K
100 kPa	751.23 ± 0.3	746.2 ± 0.3	741.05 ± 0.3	735.9 ± 0.3	730.67 ± 0.3	725.44 ± 0.3
5000 kPa	756.42 ± 0.33	751.53 ± 0.33	746.6 ± 0.33	741.67 ± 0.33	736.68 ± 0.33	731.69 ± 0.33
10000 kPa	761.33 ± 0.36	756.63 ± 0.36	751.89 ± 0.37	747.14 ± 0.37	742.38 ± 0.37	737.6 ± 0.37
15000 kPa	765.98 ± 0.4	761.42 ± 0.4	756.83 ± 0.4	752.27 ± 0.4	747.69 ± 0.41	743.07 ± 0.41
20000 kPa	770.36 ± 0.43	765.93 ± 0.43	761.5 ± 0.44	757.08 ± 0.44	752.63 ± 0.44	748.18 ± 0.44
25000 kPa	774.54 ± 0.46	770.23 ± 0.47	765.92 ± 0.47	761.61 ± 0.47	757.33 ± 0.48	753.01 ± 0.48
30000 kPa	778.52 ± 0.49	774.31 ± 0.5	770.13 ± 0.5	765.96 ± 0.51	761.74 ± 0.52	757.57 ± 0.52
35000 kPa	782.33 ± 0.53	778.21 ± 0.54	774.13 ± 0.54	770.04 ± 0.55	765.95 ± 0.56	–
40000 kPa	785.98 ± 0.57	781.97 ± 0.57	777.97 ± 0.58	773.96 ± 0.59	769.98 ± 0.59	–
45000 kPa	789.49 ± 0.6	785.55 ± 0.61	781.65 ± 0.62	777.75 ± 0.62	773.86 ± 0.63	–
50000 kPa	792.89 ± 0.64	789.02 ± 0.64	785.19 ± 0.65	781.37 ± 0.66	777.57 ± 0.67	–
55000 kPa	796.17 ± 0.67	792.37 ± 0.68	788.63 ± 0.69	784.85 ± 0.69	781.12 ± 0.7	–
60000 kPa	799.33 ± 0.7	795.56 ± 0.71	791.91 ± 0.72	788.21 ± 0.73	784.56 ± 0.74	–
65000 kPa	802.42 ± 0.73	798.71 ± 0.74	795.1 ± 0.75	791.48 ± 0.76	787.89 ± 0.77	–
